Experimental data reported in patent US20140135310A1, “SULPHONAMIDE DERIVATIVES OF ALICYCLIC AMINES FOR THE TREATMENT OF CENTRAL NERVOUS SYSTEM DISEASES” (Adamed Sp. z o.o., priority 2011, published 2014).
pKi: −log10 of the molar value.

Key:
[1] = target: dopaminergic receptors D3 (Homo sapiens, UniProt P35462); assay: Radioligand binding assay, dopaminergic D3 receptors; conditions: test compound 1×10^−6 M
Method in brief: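 Competition radioligand binding at human D2, D3 and D4.4 receptors, detected by scintillation counting; nonspecific binding defined with excess unlabelled ligand. Results as percent inhibition of control specific binding; IC50 by Hill-equation nonlinear regression; Ki via Cheng-Prusoff, with radioligand KD from Scatchard plot.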

5-HT2A receptor = target: T1, 5-HT2A receptor (Homo sapiens, UniProt P28223); assay: Radioligand binding assay, serotoninergic 5-HT2A receptors; conditions: for inhibition at 1 µM / 5-HT2A [%]: binding assay result in %, Table 5a; for pKi: read-out: Inhibition constants Ki, 5-HT2A
T1 construct: purchased PerkinElmer
Method in brief: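 Radioligand competition binding with scintillation counting; nonspecific binding defined by excess unlabelled ligand. Data as percent inhibition of control specific binding. IC50 by Hill-equation fit of competition curves; Ki by Cheng-Prusoff, with radioligand Kd from Scatchard plot.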

α2C adrenergic receptors = target: T2, α2C adrenergic receptors (Homo sapiens, UniProt P18825); assay: Radioligand binding assay, adrenergic α2C receptors; conditions: test compound 1×10^−6 M
T2 construct: expressed in transfected cells; host or cells: CHO cells
T2 sequence (P18825 1-462): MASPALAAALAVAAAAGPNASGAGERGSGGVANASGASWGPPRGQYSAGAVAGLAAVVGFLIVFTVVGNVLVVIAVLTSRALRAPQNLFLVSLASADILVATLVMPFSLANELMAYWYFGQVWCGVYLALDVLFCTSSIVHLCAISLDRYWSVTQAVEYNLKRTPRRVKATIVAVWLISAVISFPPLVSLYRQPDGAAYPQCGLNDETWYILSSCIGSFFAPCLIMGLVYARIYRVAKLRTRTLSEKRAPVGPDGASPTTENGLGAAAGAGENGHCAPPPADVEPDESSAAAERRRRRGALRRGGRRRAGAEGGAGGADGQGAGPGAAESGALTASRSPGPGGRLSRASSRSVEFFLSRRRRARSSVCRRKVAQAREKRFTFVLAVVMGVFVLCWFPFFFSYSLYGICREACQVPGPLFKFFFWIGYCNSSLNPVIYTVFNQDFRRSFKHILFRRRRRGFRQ
Excerpt: (§1) The specific ligand binding to the receptors is defined as the difference between the total binding and the non-specific binding determined in the presence of the excess of unlabelled ligand.
(§2) The results are expressed as a percent of control specific binding ((measured specific binding/control specific binding)×100) and as a percent inhibition of control specific binding (100−((measured specific binding/control specific binding)×100)) obtained in the presence of the test compounds. The specific ligand binding to the receptors is defined as the difference between the total binding and the nonspecific binding determined in the presence of an excess of unlabelled ligand. Scintillation counting was the method of detection of ligand binding. The IC50 values (concentration causing a half-maximal inhibition of control specific binding) were determined by non-linear regression analysis of the competition curves generated with mean replicate values using Hill equation curve fitting (Y=D+[(A−D)/(1+(C/C50)nH)], where Y=specific binding, D=minimum specific binding, A=maximum specific binding, C=compound concentration, C50=IC50, and nH=slope factor). This analysis was performed using a software developed at Cerep (Hill software) and validated by comparison with data generated by the commercial software SigmaPlot® 4.0 for Windows® (© 1997 by SPSS Inc.). The inhibition constants (Ki) were calculated using the Cheng Prusoff equation (Ki=IC50/(1+(L/KD)), where L=concentration of radioligand in the assay, and KD=affinity of the radioligand for the receptor). A scatchard plot was used to determine the Kd.
Experimental conditions for tests are given in Table 7, and results of tests for representative compounds are given in Tables 8 (α1 receptors) and in Tables 9 (α2C receptors).

5-HT2C receptor = target: T3, 5-HT2C receptor (Homo sapiens, UniProt P28335); assay: Radioligand binding assay, serotoninergic 5-HT2C receptors; conditions: test compound 1×10^−6 M
T3 construct: expressed in transfected cells; host or cells: HEK-293 cells
T3 sequence (P28335 33-458): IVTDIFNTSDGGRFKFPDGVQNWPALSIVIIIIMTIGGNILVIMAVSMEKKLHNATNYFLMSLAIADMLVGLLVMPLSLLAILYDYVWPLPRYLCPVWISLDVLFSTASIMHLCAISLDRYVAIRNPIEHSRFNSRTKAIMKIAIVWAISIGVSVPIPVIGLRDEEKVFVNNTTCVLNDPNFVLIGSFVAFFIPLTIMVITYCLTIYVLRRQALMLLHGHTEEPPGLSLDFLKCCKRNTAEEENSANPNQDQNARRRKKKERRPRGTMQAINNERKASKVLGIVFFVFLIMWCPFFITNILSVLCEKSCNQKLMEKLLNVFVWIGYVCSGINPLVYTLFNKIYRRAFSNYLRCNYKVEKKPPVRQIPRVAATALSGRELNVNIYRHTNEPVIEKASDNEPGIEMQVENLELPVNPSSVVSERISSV
Excerpt: as §1, §2
Experimental conditions for tests are given in Table 4, and results of tests for representative compounds of the invention are given in Table 5a and 5b (receptors 5-HT1A, 5-HT2A, 5-HT6 and 5-HT7) and in Table 6 (receptors 5-HT2C).

receptors D4.4 = target: T4, receptors D4.4 (Homo sapiens, UniProt P21917); assay: Radioligand binding assay, dopaminergic D4 (D4.4) receptors; conditions: test compound 1×10^−6 M
T4 sequence (P21917 1-419): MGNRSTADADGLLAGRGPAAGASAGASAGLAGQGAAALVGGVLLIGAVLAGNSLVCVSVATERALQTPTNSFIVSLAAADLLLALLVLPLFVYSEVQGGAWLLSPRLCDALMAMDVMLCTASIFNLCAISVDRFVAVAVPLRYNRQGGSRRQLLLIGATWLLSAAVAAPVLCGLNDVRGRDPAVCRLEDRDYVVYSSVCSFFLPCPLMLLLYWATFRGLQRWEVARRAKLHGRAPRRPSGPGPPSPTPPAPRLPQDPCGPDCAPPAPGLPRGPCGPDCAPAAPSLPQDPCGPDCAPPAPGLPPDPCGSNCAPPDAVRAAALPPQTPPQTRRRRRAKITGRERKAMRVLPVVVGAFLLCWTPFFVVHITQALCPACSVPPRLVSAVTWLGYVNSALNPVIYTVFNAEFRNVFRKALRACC
Excerpt: as §1, §2
Experimental conditions for tests are given in Table 1, the results of tests for representative compounds are given in Tables 2a and 2b (receptors D2 and D3) and in Table 3 (receptors D4).

5-HT6 receptor = target: T5, 5-HT6 receptor (Homo sapiens, UniProt P50406); assay: Radioligand binding assay, serotoninergic 5-HT6 receptors; conditions: for inhibition at 1 µM / 5-HT6 [%]: binding assay result in %, Table 5a; for pKi: read-out: Inhibition constants Ki, 5-HT6
T5 construct: purchased PerkinElmer
Method in brief: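 Values are Ki from Cheng–Prusoff, taking IC50 from Hill nonlinear regression of competition curves and KD from a Scatchard plot. Specific binding was total minus binding with excess unlabelled ligand. Radioligand displacement was detected by scintillation counting, and data were also reported as percent of control specific binding.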

[2] = target: dopaminergic receptors D2 (Homo sapiens, UniProt P14416); assay: Radioligand binding assay, dopaminergic D2 receptors; conditions: for inhibition at 1 µM / D2 [%]: binding assay, test compound 1×10^−6 M; for pKi: read-out: Inhibition constants Ki for D2 receptors, D2
Method in brief: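 Radioligand displacement was measured by scintillation counting, with non-specific binding defined in the presence of excess unlabelled ligand. Competition curves were fitted to the Hill equation to give IC50, and Ki was derived by the Cheng–Prusoff equation.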

[3] = target: T6, H1 histaminergic receptors (Homo sapiens, UniProt P35367); assay: Radioligand binding assay, histaminergic H1 receptors; conditions: human recombinant (HEK-293 cells), [3H]pyrilamine 1 nM
T6 construct: expressed in transfected cells; host or cells: HEK-293 cells
Excerpt: as §1, §2
Experimental conditions for tests are given in Table 14, and results of tests for representative compounds are presented in Table 15.

Sequence of dopaminergic receptors D2 (P14416 whole entry): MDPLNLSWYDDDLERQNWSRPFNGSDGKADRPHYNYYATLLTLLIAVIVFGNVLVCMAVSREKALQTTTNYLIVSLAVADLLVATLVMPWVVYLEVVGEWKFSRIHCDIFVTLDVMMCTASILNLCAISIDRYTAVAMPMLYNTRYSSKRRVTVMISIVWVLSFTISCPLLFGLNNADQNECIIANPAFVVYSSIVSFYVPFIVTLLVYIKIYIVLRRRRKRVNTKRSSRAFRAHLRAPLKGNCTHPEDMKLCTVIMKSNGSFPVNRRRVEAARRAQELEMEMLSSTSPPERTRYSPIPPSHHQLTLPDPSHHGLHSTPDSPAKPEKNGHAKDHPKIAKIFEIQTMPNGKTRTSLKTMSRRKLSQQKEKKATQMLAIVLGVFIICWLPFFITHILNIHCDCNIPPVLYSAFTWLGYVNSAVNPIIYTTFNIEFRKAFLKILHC
T1 sequence (P28223 whole entry): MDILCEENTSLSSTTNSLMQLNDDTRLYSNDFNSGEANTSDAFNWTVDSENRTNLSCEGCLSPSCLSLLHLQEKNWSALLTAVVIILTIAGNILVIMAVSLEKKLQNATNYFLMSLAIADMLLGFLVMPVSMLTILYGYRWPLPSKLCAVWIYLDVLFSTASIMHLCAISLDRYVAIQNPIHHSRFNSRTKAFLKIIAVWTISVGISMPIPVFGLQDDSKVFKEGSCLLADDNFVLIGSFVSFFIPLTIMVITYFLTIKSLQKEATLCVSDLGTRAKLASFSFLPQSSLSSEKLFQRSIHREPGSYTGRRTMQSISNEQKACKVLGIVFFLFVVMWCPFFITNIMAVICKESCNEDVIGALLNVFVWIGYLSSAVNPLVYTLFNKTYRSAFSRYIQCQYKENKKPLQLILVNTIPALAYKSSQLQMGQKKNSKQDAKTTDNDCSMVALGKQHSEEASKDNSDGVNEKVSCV
Sequence of dopaminergic receptors D3 (P35462 whole entry): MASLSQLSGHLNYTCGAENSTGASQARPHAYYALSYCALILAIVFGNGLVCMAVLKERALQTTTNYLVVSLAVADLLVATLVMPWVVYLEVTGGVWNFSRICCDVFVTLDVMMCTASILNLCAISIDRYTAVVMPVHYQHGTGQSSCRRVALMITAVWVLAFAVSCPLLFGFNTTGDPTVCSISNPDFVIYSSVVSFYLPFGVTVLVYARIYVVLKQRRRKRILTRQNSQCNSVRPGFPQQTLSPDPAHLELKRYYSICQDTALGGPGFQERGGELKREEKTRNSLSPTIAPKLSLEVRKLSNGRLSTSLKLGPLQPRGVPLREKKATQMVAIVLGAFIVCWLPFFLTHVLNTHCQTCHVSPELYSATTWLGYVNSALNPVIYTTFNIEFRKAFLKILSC
T5 sequence (P50406 whole entry): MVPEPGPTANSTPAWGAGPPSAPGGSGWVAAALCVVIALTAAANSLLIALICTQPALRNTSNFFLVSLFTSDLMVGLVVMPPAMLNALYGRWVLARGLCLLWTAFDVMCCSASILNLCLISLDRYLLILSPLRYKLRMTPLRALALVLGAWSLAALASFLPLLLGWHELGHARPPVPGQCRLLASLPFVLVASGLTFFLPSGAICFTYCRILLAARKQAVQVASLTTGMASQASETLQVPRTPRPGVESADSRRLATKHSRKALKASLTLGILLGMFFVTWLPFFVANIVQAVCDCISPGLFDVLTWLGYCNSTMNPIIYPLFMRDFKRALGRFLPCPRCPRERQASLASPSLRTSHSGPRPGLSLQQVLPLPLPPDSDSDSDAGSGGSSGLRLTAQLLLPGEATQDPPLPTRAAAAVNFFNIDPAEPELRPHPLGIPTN
T6 sequence (P35367 whole entry): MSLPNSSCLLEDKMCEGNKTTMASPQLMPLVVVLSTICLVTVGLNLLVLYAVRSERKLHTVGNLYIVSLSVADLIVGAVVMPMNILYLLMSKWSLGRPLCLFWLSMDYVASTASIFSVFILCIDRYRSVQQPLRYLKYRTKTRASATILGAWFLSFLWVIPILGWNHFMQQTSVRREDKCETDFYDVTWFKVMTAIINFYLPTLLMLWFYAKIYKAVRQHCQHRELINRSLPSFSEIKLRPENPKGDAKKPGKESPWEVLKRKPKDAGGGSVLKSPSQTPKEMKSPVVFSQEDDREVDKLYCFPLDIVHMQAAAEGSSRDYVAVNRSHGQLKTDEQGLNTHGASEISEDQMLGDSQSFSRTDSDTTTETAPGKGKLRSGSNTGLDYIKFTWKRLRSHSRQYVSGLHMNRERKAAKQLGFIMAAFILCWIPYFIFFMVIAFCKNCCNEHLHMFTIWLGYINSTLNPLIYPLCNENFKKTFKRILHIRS

Row | H1 [%] [3] [%] | SMILES | inhibition at 1 µM [1] [%] | inhibition at 1 µM (5-HT2A receptor) [%] | pKi (5-HT2A receptor) | inhibition at 1 µM (α2C adrenergic receptors) [%] | inhibition at 1 µM (5-HT2C receptor) [%] | inhibition at 1 µM (receptors D4.4) [%] | inhibition at 1 µM (5-HT6 receptor) [%] | pKi (5-HT6 receptor) | inhibition at 1 µM [2] [%] | pKi [2] | D3 [%] [1] [%] | 5-HT2A [%] (5-HT2A receptor) | α2C [%] (α2C adrenergic receptors) | D4.4 [%] (receptors D4.4) | 5-HT6 [%] (5-HT6 receptor) | D2 [%] [2] [%] | 5-HT2C [%] (5-HT2C receptor)
1 | – | O=S(=O)(N[C@@H]1CCN(CCCc2noc3cc(F)ccc23)C1)c1ccc2ccccc2c1 [Compound 206, N-[(3R)-1-[3-(6-Fluoro-1,2-benzoxazol-3-yl)propyl]pyrrolidin-3-yl]naphthalene-2-sulphonamide] | 95 | 100 | 9.15 | 93 | 84 | 87 | 101 | 8.21 | 101 | 9.52 | – | – | – | – | – | – | –
2 | – | O=S(=O)(NC1CN(CCOc2cccc3[nH]ccc23)C1)c1cccc2ccccc12 [Compound 49, N-[1-[2-(1H-Indol-4-yloxy)ethyl]azetidin-3-yl]naphthalene-1-sulphonamide] | 106 | 82 | – | 110 | 59 | 82 | 34 | – | 99 | – | – | – | – | – | – | – | –
3 | – | O=S(=O)(NCC1CCN(CCCc2noc3cc(F)ccc23)C1)c1cccc2ccccc12 (stereo not shown) [Compound 239, N-[[1-[3-(6-Fluoro-1,2-benzoxazol-3-yl)propyl]pyrrolidin-3-yl]methyl]naphthalene-1-sulphonamide] | 76 | 98 | – | 89 | 49 | 78 | 97 | – | 96 | – | – | – | – | – | – | – | –
4 | – | O=S(=O)(N[C@@H]1CCN(CCCc2noc3cc(F)ccc23)C1)c1ccc2cc(Cl)ccc2c1 [Compound 200, 6-Chloro-N-[(3R)-1-[3-(6-fluoro-1,2-benzoxazol-3-yl)propyl]pyrrolidin-3-yl]naphthalene-2-sulphonamide] | 94 | 99 | 8.64 | 96 | 77 | 49 | 99 | 8.00 | 100 | 10.00 | – | – | – | – | – | – | –
5 | – | Cc1c(S(=O)(=O)N[C@@H]2CCN(CCCc3noc4cc(F)ccc34)C2)sc2ccc(Cl)cc12 [Compound 204, 5-Chloro-N-[(3R)-1-[3-(6-fluoro-1,2-benzoxazol-3-yl)propyl]pyrrolidin-3-yl]-3-methyl-benzothiophene-2-sulphonamide] | 96 | – | 9.10 | 89 | 87 | 71 | 97 | 8.16 | 98 | 9.40 | – | – | – | – | – | – | –
6 | – | O=S(=O)(NC1CCN(CCOc2nsc3ccccc23)C1)c1ccc2ccccc2c1 (stereo not shown) [Compound 39, N-[1-[2-(1,2-Benzothiazol-3-yloxy)ethyl]pyrrolidin-3-yl]naphthalene-2-sulphonamide] | 95 | 99 | – | 92 | 74 | 73 | 92 | – | 86 | – | – | – | – | – | – | – | –
7 | 72 | O=S(=O)(NC1CCN(CCOc2cccc3ccccc23)C1)c1cccc(O)c1 (stereo not shown) [Compound 115, 3-Hydroksy-N-[1-[2-(1-naphthyloxy)ethyl]pyrrolidin-3-yl]benzenesulphonamide] | – | – | – | – | – | – | – | – | – | – | 97 | 99 | 90 | 55 | 88 | 74 | –
8 | – | O=S(=O)(NC1CN(CCOc2cccc3c2OCCO3)C1)c1cccc2ccccc12 [Compound 94, N-[1-[2-(2,3-Dihydro-1,4-benzodioxan-8-yloxy)ethyl]azetidin-3-yl]-naphthalene-1-sulphonamide] | – | – | – | – | – | – | – | – | – | – | 105 | 99 | 106 | 90 | 65 | 102 | 91
9 | – | Cc1ccc2sc(S(=O)(=O)N[C@@H]3CCN(CCCc4noc5cc(F)ccc45)C3)cc2c1 [Compound 228, N-[(3R)-1-[3-(6-Fluoro-1,2-benzoxazol-3-yl)propyl]pyrrolidin-3-yl]-5-methyl-benzothiophene-2-sulphonamide] | 97 | – | 9.00 | 95 | 91 | 68 | 100 | 7.85 | 100 | 9.15 | – | – | – | – | – | – | –
10 | – | O=S(=O)(NC1CCN(CCCc2c[nH]c3ccc(F)cc23)C1)c1ccc2ccccc2c1 (stereo not shown) [Compound 80, N-[1-[3-(5-Fluoro-1H-indol-3-yl)propyl]pyrrolidin-3-yl]naphthalene-2-sulphonamide] | 100 | 100 | – | 88 | 86 | 91 | 96 | 7.82 | 96 | – | – | – | – | – | – | – | –
11 | – | Cc1c(S(=O)(=O)N[C@@H]2CCN(CCCc3noc4cc(F)ccc34)C2)sc2ccc(F)cc12 [Compound 202, 5-Fluoro-N-[(3R)-1-[3-(6-fluoro-1,2-benzoxazol-3-yl)propyl]pyrrolidin-3-yl]-3-methyl-benzothiophene-2-sulphonamide] | 96 | 99 | 8.85 | 95 | 88 | 76 | 100 | 8.15 | 101 | 8.92 | – | – | – | – | – | – | –
